Results: ChEMBL document CHEMBL4256946, “Thiourea compounds and their use as inhibitors of sirt2 or sirt5” (2016)
One block for each molecule: values may come before it. Active and inactive are the calls of the source. The calls are words filed in the database; no cut-off is given here.

Assays:
[1] = target: T1, NAD-dependent protein deacetylase sirtuin-1 (Homo sapiens) (UniProt Q96EB6); test: Inhibition of SIRT1 (unknown origin) assessed as reduction in enzyme-catalyzed desuccinylation reaction at 256 uM
T1 sequence (whole entry): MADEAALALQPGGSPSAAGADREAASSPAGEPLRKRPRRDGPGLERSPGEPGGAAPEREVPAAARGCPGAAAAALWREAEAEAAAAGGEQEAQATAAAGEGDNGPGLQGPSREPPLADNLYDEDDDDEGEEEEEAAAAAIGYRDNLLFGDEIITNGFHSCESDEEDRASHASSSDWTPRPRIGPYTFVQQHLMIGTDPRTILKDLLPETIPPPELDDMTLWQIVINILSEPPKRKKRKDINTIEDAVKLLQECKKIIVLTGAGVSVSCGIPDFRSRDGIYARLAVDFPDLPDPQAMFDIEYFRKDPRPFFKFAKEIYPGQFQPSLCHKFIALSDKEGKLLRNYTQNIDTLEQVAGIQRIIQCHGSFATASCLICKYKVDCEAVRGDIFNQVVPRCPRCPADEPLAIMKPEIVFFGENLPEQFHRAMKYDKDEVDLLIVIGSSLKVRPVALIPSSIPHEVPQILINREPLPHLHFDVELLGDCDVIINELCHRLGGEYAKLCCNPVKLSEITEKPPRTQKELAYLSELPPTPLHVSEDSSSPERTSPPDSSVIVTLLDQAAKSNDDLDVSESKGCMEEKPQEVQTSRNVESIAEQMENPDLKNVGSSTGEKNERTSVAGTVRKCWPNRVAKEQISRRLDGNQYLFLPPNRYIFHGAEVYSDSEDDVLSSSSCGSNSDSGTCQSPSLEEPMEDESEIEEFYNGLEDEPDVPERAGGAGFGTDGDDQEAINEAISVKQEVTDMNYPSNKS

[2] = target: T2, NAD-dependent protein deacetylase sirtuin-2 (Homo sapiens) (UniProt Q8IXJ6); test: Inhibition of SIRT2 (unknown origin) assessed as reduction in enzyme-catalyzed desuccinylation reaction at 256 uM
T2 sequence (whole entry): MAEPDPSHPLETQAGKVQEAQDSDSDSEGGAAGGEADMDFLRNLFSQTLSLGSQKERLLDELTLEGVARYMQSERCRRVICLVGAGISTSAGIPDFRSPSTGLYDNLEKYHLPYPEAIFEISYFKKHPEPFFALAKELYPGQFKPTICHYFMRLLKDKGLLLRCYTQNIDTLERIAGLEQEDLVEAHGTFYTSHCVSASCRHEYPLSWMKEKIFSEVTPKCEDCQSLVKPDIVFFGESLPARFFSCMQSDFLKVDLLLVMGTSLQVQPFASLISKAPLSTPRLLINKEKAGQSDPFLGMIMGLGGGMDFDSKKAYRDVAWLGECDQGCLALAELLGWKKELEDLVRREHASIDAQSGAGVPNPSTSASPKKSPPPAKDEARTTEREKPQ

MCF7 [3] = test: Growth inhibition of human MCF7 cells at 25 uM incubated for 10 days by crystal violet staining based assay; assay type: functional, cell-based
[4] = target: T3, NAD-dependent protein deacetylase sirtuin-1 (Homo sapiens, UniProt Q96EB6); test: Inhibition of SIRT1 (unknown origin) assessed as reduction in enzyme-catalyzed desuccinylation reaction
T3 sequence (Q96EB6 whole entry): T1 sequence (whole entry)

[5] = target: T4, NAD-dependent protein deacetylase sirtuin-2 (Homo sapiens, UniProt Q8IXJ6); test: Inhibition of SIRT2 (unknown origin) assessed as reduction in enzyme-catalyzed desuccinylation reaction
T4 sequence (Q8IXJ6 whole entry): T2 sequence (whole entry)

[6] = target: T5, NAD-dependent protein deacetylase sirtuin-3, mitochondrial (Homo sapiens, UniProt Q9NTG7); test: Inhibition of SIRT3 (unknown origin) assessed as reduction in enzyme-catalyzed desuccinylation reaction
T5 sequence (Q9NTG7 whole entry): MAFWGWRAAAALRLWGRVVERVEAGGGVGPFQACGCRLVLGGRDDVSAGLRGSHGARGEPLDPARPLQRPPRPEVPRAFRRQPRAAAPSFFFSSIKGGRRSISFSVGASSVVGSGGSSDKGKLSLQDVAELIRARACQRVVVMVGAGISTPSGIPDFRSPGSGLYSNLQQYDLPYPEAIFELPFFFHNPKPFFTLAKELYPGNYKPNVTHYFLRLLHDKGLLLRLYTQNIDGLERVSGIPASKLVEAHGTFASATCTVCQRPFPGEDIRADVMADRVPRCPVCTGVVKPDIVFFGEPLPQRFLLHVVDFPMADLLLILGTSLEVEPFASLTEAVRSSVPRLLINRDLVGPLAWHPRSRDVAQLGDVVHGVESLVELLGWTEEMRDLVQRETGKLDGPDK

[7] = target: NAD-dependent protein deacylase sirtuin-5, mitochondrial (Homo sapiens) (UniProt Q9NXA8); test: Inhibition of SIRT5 in human MCF7 cells assessed as increase in protein succinylation level at 100 uM after 48 to 72 hrs by Western blot analysis; assay type: cell-based
MDA-MB-231 = test: Inhibition of foci formation in human MDA-MB-231 cells at 10 to 100 uM; assay type: functional, cell-based
MDA-MB-468 = test: Inhibition of foci formation in human MDA-MB-468 cells at 10 to 100 uM; assay type: functional, cell-based
MCF7 [8] = test: Inhibition of foci formation in human MCF7 cells at 10 to 100 uM; assay type: functional, cell-based
[9] = target: NAD-dependent protein deacylase sirtuin-5, mitochondrial (Homo sapiens) (UniProt Q9NXA8); test: Inhibition of SIRT5 (unknown origin) assessed as reduction in enzyme-catalyzed desuccinylation reaction at 200 uM
[10] = target: NAD-dependent protein deacylase sirtuin-6 (Homo sapiens, UniProt Q8N6T7); test: Inhibition of SIRT6 (unknown origin) assessed as reduction in enzyme-catalyzed desuccinylation reaction
[11] = target: NAD-dependent protein deacylase sirtuin-5, mitochondrial (Homo sapiens) (UniProt Q9NXA8); test: Mechanism based inhibition of SIRT5 (unknown origin) incubated in presence of NAD for 15 mins by liquid chromatography-mass spectrometry method
[12] = target: NAD-dependent protein deacylase sirtuin-5, mitochondrial (Homo sapiens) (UniProt Q9NXA8); test: (§1) Substrate activity at SIRT5 (unknown origin) assessed as compound-NAD covalent intermediate formation by measuring 2-((2R,3R,4S,5R)-5-((((((2R,3S,4R,5R)-5-(6-amino-9H-purin-9-yl)-3,4-dihydroxytetrahydrofuran-2-yl)methoxy)(hydroxy)phosphoryloxy)(hydroxy)phosphoryloxy)methyl)-3,4-dihydroxytetrahydrofuran-2-yl)-1-((S)-5-(benzyloxycarbonylamino)-6-oxo-6-(phenylamino)hexyl)-3-(2-carboxyethyl)isothiouronium level measured after 15 mins by liquid chromatography-mass spectrometry method
[13] = target: NAD-dependent protein deacylase sirtuin-5, mitochondrial (Homo sapiens) (UniProt Q9NXA8); test: (§2) Substrate activity at SIRT5 (unknown origin) assessed as compound-NAD covalent intermediate formation by measuring 3-((3aR,5R,6R,6aR)-5-((((((2R,3S,4R,5R)-5-(6-amino-9H-purin-9-yl)-3,4-dihydroxytetrahydrofuran-2-yl)methoxy)(hydroxy)phosphoryloxy)(hydroxy)phosphoryloxy)methyl)-2-((S)-5-(benzyloxycarbonylamino)-6-oxo-6-(phenylamino)hexylamino)-6-hydroxytetrahydrofuro[2,3-d][1,3]oxathiol-2-ylamino)propanoic acid level measured after 15 mins by liquid chromatography-mass spectrometry method
[14] = target: NAD-dependent protein deacylase sirtuin-5, mitochondrial (Homo sapiens) (UniProt Q9NXA8); test: (§3) Substrate activity at SIRT5 (unknown origin) assessed as compound-NAD covalent intermediate formation by measuring 2-((2R,3R,4R,5R)-5-((((((2R,3S,4R,5R)-5-(6-amino-9H-purin-9-yl)-3,4-dihydroxytetrahydrofuran-2-yl)methoxy)(hydroxy)phosphoryloxy)(hydroxy)phosphoryloxy)methyl)-4-hydroxy-2-mercaptotetrahydrofuran-3-yl)-1-((S)-5-(benzyloxycarbonylamino)-6-oxo-6-(phenylamino)hexyl)-3-(2-carboxyethyl)isouronium level measured after 15 mins by liquid chromatography-mass spectrometry method
[15] = target: NAD-dependent protein deacylase sirtuin-5, mitochondrial (Homo sapiens) (UniProt Q9NXA8); test: as §1, with “5 hrs” for “15 mins”
[16] = target: NAD-dependent protein deacylase sirtuin-5, mitochondrial (Homo sapiens) (UniProt Q9NXA8); test: as §2, with “5 hrs” for “15 mins”
[17] = target: NAD-dependent protein deacylase sirtuin-5, mitochondrial (Homo sapiens) (UniProt Q9NXA8); test: as §3, with “7 hrs” for “15 mins”
[18] = target: NAD-dependent protein deacylase sirtuin-5, mitochondrial (Homo sapiens) (UniProt Q9NXA8); test: Substrate activity at SIRT5 (unknown origin) assessed as compound-NAD covalent intermediate formation by measuring parent compound consumption measured after 18 hrs by liquid chromatography-mass spectrometry method
[19] = target: NAD-dependent protein deacylase sirtuin-5, mitochondrial (Homo sapiens) (UniProt Q9NXA8); test: Substrate activity at SIRT5 (unknown origin) assessed as compound-NAD covalent intermediate formation by measuring (S)-3,11-dioxo-1-phenyl-5-(phenylcarbamoyl)-2-oxa-4,10,12-triazapentadecan-15-oic acid level measured after 18 hrs by liquid chromatography-mass spectrometry method
[20] = target: NAD-dependent protein deacylase sirtuin-5, mitochondrial (Homo sapiens) (UniProt Q9NXA8); test: Inhibition of SIRT5 in human HeLa cells assessed as increase in protein succinylation level at 100 uM after 24 to 48 hrs by Western blot analysis; assay type: cell-based

Sequence of NAD-dependent protein deacylase sirtuin-5, mitochondrial (Homo sapiens) (Q9NXA8 37-310 limits assumed): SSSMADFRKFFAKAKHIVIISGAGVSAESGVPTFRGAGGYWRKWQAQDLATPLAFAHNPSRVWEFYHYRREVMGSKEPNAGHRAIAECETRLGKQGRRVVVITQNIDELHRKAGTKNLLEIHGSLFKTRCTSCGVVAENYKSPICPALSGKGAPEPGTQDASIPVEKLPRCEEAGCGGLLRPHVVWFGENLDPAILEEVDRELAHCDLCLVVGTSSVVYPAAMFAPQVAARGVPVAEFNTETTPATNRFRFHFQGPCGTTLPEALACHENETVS
Sequence of NAD-dependent protein deacylase sirtuin-6 (Q8N6T7 whole entry): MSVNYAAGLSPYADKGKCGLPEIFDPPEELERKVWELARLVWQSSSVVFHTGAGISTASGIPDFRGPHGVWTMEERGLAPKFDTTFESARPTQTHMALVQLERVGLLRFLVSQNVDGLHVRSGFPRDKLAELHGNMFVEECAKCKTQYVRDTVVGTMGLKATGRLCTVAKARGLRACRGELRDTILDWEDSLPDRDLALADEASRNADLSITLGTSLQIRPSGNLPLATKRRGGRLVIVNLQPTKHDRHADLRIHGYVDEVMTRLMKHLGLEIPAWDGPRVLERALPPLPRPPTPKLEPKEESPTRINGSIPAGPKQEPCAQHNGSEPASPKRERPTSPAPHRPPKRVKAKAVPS

Structure (SMILES): O=C(O)CC(=S)NCCCC[C@H](NC(=O)OCc1ccccc1)C(=O)Nc1ccccc1
inhibition [1]: inactive | inhibition [2]: inactive | inhibition [11]: Active | Activity [12]: Active | Activity [13]: Active | Activity [14]: Active | Activity [15]: Active | Activity [16]: Active | Activity [17]: Active | Activity [18]: Active | Activity [19]: Active

Structure (SMILES): CCOC(=O)CCNC(=S)NCCCC[C@H](NC(=O)OCc1ccccc1)C(=O)NC1CCSc2ccccc21 (some centres not stated)
inhibition [20]: Active | growth inhibition (GI) (MCF7 [3]): Active

Structure (SMILES): O=C(O)CCCC(=S)NCCCC[C@H](NC(=O)OCc1ccccc1)C(=O)Nc1ccccc1
inhibition [1]: inactive | inhibition [2]: inactive | Activity [18]: inactive

More lines, main results first:

inhibition [1]: inactive | inhibition [2]: inactive
Structure (SMILES): O=C(O)CCC(=S)NCCCC[C@H](NC(=O)OCc1ccccc1)C(=O)Nc1ccccc1

IC50 [4]: Not Active | IC50 [5]: Not Active | IC50 [6]: Not Active
Structure (SMILES): O=C(O)CCNC(=S)NCCCC[C@H](NC(=O)OCc1ccccc1)C(=O)NC1CCSc2ccccc21 (some centres not stated)
growth inhibition (GI) (MCF7 [3]): inactive

IC50 [4]: Not Active | IC50 [5]: Not Active | IC50 [6]: Not Active
Structure (SMILES): O=C(O)CCNC(=S)NCCCC[C@H](NC(=O)OCc1ccccc1)C(=O)Nc1cccc(O)c1

inhibition [7]: Active | IC50 [6]: Not Active | inhibition [9]: 20% | IC50 [10]: Not Active
Structure (SMILES): CCOC(=O)CCNC(=S)NCCCC[C@H](NC(=O)OCc1ccccc1)C(=O)Nc1cccc(O)c1
inhibition (MDA-MB-231): Dose-dependent effect | inhibition (MDA-MB-468): Dose-dependent effect | inhibition (MCF7 [8]): Dose-dependent effect
